Source: patent publication US6329189A, “Enzyme producing tartaric acid ether compound and process for producing tartaric acid ether compounds using this enzyme” (Kikkoman Corporation, priority 1998, dated 2001)
Counter-ions that a name gives are not always drawn.

How the values were obtained:
[1] = Solubility in solvents of the enzyme reaction products; format: physicochemical; details: water, methanol, DMSO
[2] = test system: enzyme producing tartaric acid ether compound; experiment: Influence of metallic ions on the action of the present enzyme; format: biochemical, Aspergillus oryzae; details: for Relative activity (%): activity with no addition = 100%; for Influence on the activity of the present enzyme (in words): presence of the ion or EDTA
Procedure: "Relative activity (%)" in Table 2 is the value relative to the activity (expressed as 100) observed when no metallic ion was added.
The activity observed with no addition of metallic ions was expressed as 100%.

[3] = test system: enzyme producing tartaric acid ether compound; experiment: Substrate specificity of the present enzyme in the presence of (±)-trans-epoxysuccinic acid; format: biochemical, Aspergillus oryzae; details: for Relative activity (%): substrate in the presence of (±)-trans-epoxysuccinic acid, decrement of genistein as substrate expressed as 100; for Action of the enzyme to the phenolic hydroxyl groups of the substrate (in words): in the presence of (±)-trans-epoxysuccinic acid
Procedure: The activities of the present enzyme to the various substrate compounds having a phenolic hydroxyl group(s) shown in Table 1 in the presence of (±)-trans-epoxysuccinic acid were measured and shown as relative activities (%) with reference to the activity to genistein which was expressed as 100. The measurement of activity was conducted under the same conditions as used for the determination of titer described later.
Enzyme titer was determined by the following method. The amount of the enzyme that produces 1 μmol of 2-hydroxy-3-[[5-hydroxy-3-(4-hydroxyphenyl)-4-oxo-4H-1-benzopyran-7-yl]oxy]-butanedioic acid in one minute in the reaction of the following formula (6) is expressed as 1 U. [drawing 1]
Substrate solution I: 60 mM (±)-trans-epoxysuccinic acid (Tokyo Kasei Kogyo Co., Ltd.) was dissolved in 100 ml of a 50 mM sodium acetate-acetic acid buffer (pH 6.0), and the solution was adjusted to pH 6.0 with sodium hydroxide.
Substrate solution II: Prepared by dissolving 0.3 mmol of genistein (Funakoshi Co., Ltd.) in 100 ml of dimethyl sulfoxide.
50 mmol of sodium acetate and 40 mmol of manganese sulfate were dissolved in distilled water, and the solution was adjusted to pH 6.0 with acetic acid and made one litre.
(1) 0.175 ml of the buffer, 0.1 ml of the substrate solution I and 0.01 ml of an enzyme solution were pipetted into a microtube, and the mixed solution was preincubated at 37° C. for 5 minutes.
(2) The above solution was mixed with 0.025 ml of the substrate solution II and reacted at 37° C. for 15 minutes, after which 0.01 ml of concentrated hydrochloric acid was added to stop the reaction. Used as control was a solution prepared in the same way as described above except that 0.01 ml of the buffer was added in place of 0.01 ml of the enzyme solution.
2-hydroxy-3-[[5-hydroxy-3-(4-hydroxyphenyl)-4-oxo-4H-1-benzopyran-7-yl]oxy]-butanedioic acid produced from the reaction of the formula (6) was determined by HPLC under the following conditions: […]
Column: Wakosil-II5C18HG (4.6 mm×30 mm+4.6 mm×250 mm, mfd. by Wako Pure Chemical Industries, Ltd.).
Eluent: distilled water containing 0.05% of trifluoroacetic acid and 28.8% of acetonitrile.
Detecting wavelengh: 260 nm.

[4] = test system: enzyme producing tartaric acid ether compound; experiment: Km value from Lineweaver-Burk's plot; format: biochemical, Aspergillus oryzae; details: compound used as substrate
[5] = molecular target: T1, histidine decarboxylase (HDC) (Homo sapiens, UniProt P19113); details: from JP-A-9-110857 and JP-A-10-59956; cited from earlier work
T1 sequence (P19113 1-662): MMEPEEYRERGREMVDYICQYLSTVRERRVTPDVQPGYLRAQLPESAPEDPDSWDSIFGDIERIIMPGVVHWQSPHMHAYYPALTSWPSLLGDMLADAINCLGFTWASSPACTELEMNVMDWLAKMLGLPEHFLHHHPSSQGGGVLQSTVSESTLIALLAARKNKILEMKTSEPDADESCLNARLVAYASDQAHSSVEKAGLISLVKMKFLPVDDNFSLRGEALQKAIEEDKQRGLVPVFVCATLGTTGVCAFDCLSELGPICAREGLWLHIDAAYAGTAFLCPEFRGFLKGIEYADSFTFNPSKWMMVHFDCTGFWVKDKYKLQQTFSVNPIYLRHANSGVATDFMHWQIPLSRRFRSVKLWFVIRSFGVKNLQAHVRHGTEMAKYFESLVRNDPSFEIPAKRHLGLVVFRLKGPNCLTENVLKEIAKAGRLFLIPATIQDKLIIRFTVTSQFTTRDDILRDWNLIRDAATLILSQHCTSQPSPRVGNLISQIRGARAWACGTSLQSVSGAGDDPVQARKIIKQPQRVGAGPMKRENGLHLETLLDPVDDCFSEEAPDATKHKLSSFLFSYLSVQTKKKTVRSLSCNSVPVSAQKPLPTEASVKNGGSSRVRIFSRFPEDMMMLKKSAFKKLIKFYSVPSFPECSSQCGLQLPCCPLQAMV

Structure (SMILES)	Relative activity (%) [3]	Action of the enzyme to the phenolic hydroxyl groups of the substrate (in words) [3]	other results
O=C(O)C(O)C(Oc1cc(O)c2c(=O)cc(-c3ccc(O)cc3)oc2c1)C(=O)O (centres unmarked) [Example 6 enzyme reaction product]	–	–	Solubility in solvents [1]: soluble in water, methanol and DMSO
[Co+2] [Co^2+]	–	–	Relative activity (%) ([2]; 20 mM metallic ion): 236%; Influence on the activity of the present enzyme (in words) [2]: enhanced
Oc1cc(O)c2c(c1)OC(c1ccc(O)c(O)c1)C(O)C2 (centres unmarked) [catechin]	16%	–	–
O=C1C(=Cc2ccc(O)c(O)c2)Oc2cc(OC(C(=O)O)C(O)C(=O)O)ccc21 (centres unmarked) [Example 2 enzyme reaction product]	–	–	Solubility in solvents [1]: soluble in water, methanol and DMSO
O=C(O)[C@H]1O[C@@H]1C(=O)O (relative stereo) [(±)-trans-epoxysuccinic acid]	–	–	Km [4]: 2580 µM
COc1ccc(-c2coc3cc(O)cc(O)c3c2=O)cc1 [biochanin A]	86%	acts in a favorable way	–
O=C(O)C(O)C(Oc1cc(O)c2c(=O)c(-c3ccc(O)cc3)coc2c1)C(=O)O (single isomer, unassigned) [2-hydroxy-3-[[5-hydroxy-3-(4-hydroxyphenyl)-4-oxo-4H-1-benzopyran-7-yl]oxy]-butanedioic acid]	–	–	Inhibitory action against histidine decarboxylase (HDC) [5]: prominent inhibitory action
O=C(O)C(O)C(Oc1cc(O)c2c(=O)c(-c3ccc(O)cc3)coc2c1O)C(=O)O (single isomer, unassigned) [2-[[5,8-dihydroxy-3-(4-hydroxyphenyl)-4-oxo-4H-1-benzopyran-7-yl]oxy]-3-hydroxy-butanedioic acid]	–	–	Inhibitory action against histidine decarboxylase (HDC) [5]: prominent inhibitory action
O=C1CC(c2ccc(O)cc2)Oc2cc(OC(C(=O)O)C(O)C(=O)O)cc(O)c21 (centres unmarked) [Example 4 enzyme reaction product I]	–	–	Solubility in solvents [1]: soluble in water, methanol and DMSO
Cc1cc(=O)oc2cc(O)cc(O)c12 [5,7-dihydroxy-4-methylcoumarin]	107%	acts in a favorable way	–
[Fe+2] [Fe^2+]	–	–	Relative activity (%) ([2]; 20 mM metallic ion): 125%; Relative activity (%) ([2]; 20 mM metallic ion, listed as Fe^3+): 33%; Influence on the activity of the present enzyme (in words) [2]: enhanced
[Mn+2] [Mn^2+]	–	–	Relative activity (%) ([2]; 20 mM metallic ion): 268%; Influence on the activity of the present enzyme (in words) [2]: enhanced
O=C1CC(c2ccc(OC(C(=O)O)C(O)C(=O)O)cc2)Oc2cc(OC(C(=O)O)C(O)C(=O)O)cc(O)c21 (centres unmarked) [Example 4 enzyme reaction product II]	–	–	Solubility in solvents [1]: soluble in water, methanol and DMSO
O=C(O)CN(CCN(CC(=O)O)CC(=O)O)CC(=O)O [EDTA, ethylenediamine-N,N,N'N'-tetraacetic acid disodium salt]	–	–	Relative activity (%) ([2]; 5 mM EDTA): 12%; Influence on the activity of the present enzyme (in words) [2]: greatly inhibited
O=C(O)C(O)C(Oc1ccc(-c2oc3cc(OC(C(=O)O)C(O)C(=O)O)cc(O)c3c(=O)c2O)cc1)C(=O)O (centres unmarked) [Example 3 enzyme reaction product II]	–	–	Solubility in solvents [1]: soluble in water, methanol and DMSO
O=c1c(O)c(-c2ccc(O)c(O)c2)oc2cc(O)cc(O)c12 [quercetin]	31%	–	–
[Zn+2] [Zn^2+]	–	–	Relative activity (%) ([2]; 20 mM metallic ion): 416%; Influence on the activity of the present enzyme (in words) [2]: enhanced
O=C(O)C(O)C(Oc1cc(O)c2c(=O)c(O)c(-c3ccc(O)cc3)oc2c1)C(=O)O (centres unmarked) [Example 3 enzyme reaction product I]	–	–	Solubility in solvents [1]: soluble in water, methanol and DMSO
O=c1oc2cc(O)ccc2c2oc3cc(O)ccc3c12 [courmestrol]	58%	acts in a favorable way	–
[Ca+2] [Ca^2+]	–	–	Relative activity (%) ([2]; 20 mM metallic ion): 140%; Influence on the activity of the present enzyme (in words) [2]: enhanced
O=C(O)C(O)C(Oc1ccc2c(=O)c(-c3ccc(O)cc3)coc2c1)C(=O)O (single isomer, unassigned) [2-hydroxy-3-[[3-(4-hydroxyphenyl)-4-oxo-4H-1-benzopyran-7-yl]oxy]-butanedioic acid]	–	–	Inhibitory action against histidine decarboxylase (HDC) [5]: prominent inhibitory action
[Mg+2] [Mg^2+]	–	–	Relative activity (%) ([2]; 20 mM metallic ion): 220%; Influence on the activity of the present enzyme (in words) [2]: enhanced
O=C(O)C(O)C(Oc1cc(O)c2c(c1)O[C@H](c1ccc(O)c(O)c1)[C@@H](O)C2=O)C(=O)O (single isomer, unassigned) [Example 5 enzyme reaction product]	–	–	Solubility in solvents [1]: soluble in water, methanol and DMSO
[Ni+2] [Ni^2+]	–	–	Relative activity (%) ([2]; 20 mM metallic ion): 198%; Influence on the activity of the present enzyme (in words) [2]: enhanced
COc1cc(C(=O)O)ccc1O [vanillic acid]	4%	acts faintly	–
O=c1c(-c2ccc(O)cc2)coc2cc(O)cc(O)c12 [genistein]	100%	acts in a favorable way	Km [4]: 1040 µM
[Cu+2] [Cu^2+]	–	–	Relative activity (%) ([2]; 20 mM metallic ion): 0%; Influence on the activity of the present enzyme (in words) [2]: greatly inhibited

Second part, led by results:

Relative activity (%) [3]	Action of the enzyme to the phenolic hydroxyl groups of the substrate (in words) [3]	Structure (SMILES)	other results
278%	acts in a favorable way	O=c1c(O)c(-c2ccc(O)cc2)oc2cc(O)cc(O)c12 [kaempferol]	–
321%	acts in a favorable way	O=c1cc(-c2ccccc2)oc2cc(O)c(O)c(O)c12 [baicalein]	–
52%	acts in a favorable way	O=c1c(-c2ccc(O)cc2)coc2cc(O)ccc12 [daidzein]	–
182%	acts in a favorable way	O=c1c(-c2ccc(O)cc2)coc2cc(O)c(O)cc12 [4',6,7-trihydroxyisoflavone]	–
135%	acts in a favorable way	O=C1COc2cc(O)ccc21 [6-hydroxy-2H-benzofuran-3-one]	–
115%	acts in a favorable way	O=C(/C=C/c1ccc(O)c(O)c1)c1c(O)cc(O)cc1O [2',4',6',3,4-pentahydroxychalcone]	–
92%	acts in a favorable way	O=c1cc(-c2ccc(O)cc2)oc2cc(O)cc(O)c12 [apigenin]	–
106%	acts in a favorable way	O=C1c2c(O)cc(O)cc2O[C@H](c2ccc(O)c(O)c2)[C@H]1O [(+)-taxifolin]	–
194%	acts in a favorable way	O=C1C[C@@H](c2ccc(O)cc2)Oc2cc(O)cc(O)c21 [naringenin]	–
4%	acts faintly	O=c1cc(CO)occ1O [kojic acid]	–
316%	acts in a favorable way	O=C1/C(=C/c2ccc(O)c(O)c2)Oc2cc(O)ccc21 [sulfuretin]	–
